Where “and” joins values, the source holds several entries; their conditions need not be identical. Equal values may be shown once.
Columns and labels:
AML patients = assay: Clinical outcome of AML patients treated with tipifarnib versus NK cell biomarker expression in bone marrow (GSE8970/CTEP-20, GSE5122); type: in vivo, human; details: for Exp(b), Cox proportional hazards regression: AML patients treated with tipifarnib
Protocol: The current study used microarray data generated from global gene expression assay of bone marrow samples collected in two clinical studies investigating the efficacy and safety of FTI tipifarnib. One clinical study was conducted in adult patients aged 65 years or older with previously untreated AML, and the other conducted in relapsed and refractory AML. The clinical results for these studies were previously published (Lancet et al., Blood 109:1387-1394 (2007); Harousseau et al., Blood 9:9 (2007); Raponi et al., Clin. Cancer Res. 13:2254-2260 (2007)), and the gene profiling data were publically available in NCBI's Gene Expression Omnibus (GEO, http://www.ncbi.nlm.nih.gov/geo) and are assessable through GEO Series accession numbers GSE8970 and GSE5122.
As described in Raponi et al., Blood 111:2589-96 (2008), BM samples were collected from consenting patients before treatment with tipifarnib, and mononuclear cells were processed on site. Total RNA was extracted from cell samples, quality controlled, and further processed for microarray analysis. DNA was isolated from the same sample. Samples were assayed for global gene expression, and/or quantitative polymerase chain reaction (QPCR) of specific genes).
Briefly, CR was defined as BM showing less than 5% myeloblasts with normal maturation of all cell lines, absolute neutrophil count (ANC) of at least 10^9/L (1000/μL), and a platelet count of 100×10^9/L (100 000/μL). PR was defined as the presence of recovery of ANC and platelets to the above stated levels, but with 5% to 19% BM blasts, and a greater than 50% decrease in BM blast percentage from baseline. HI was defined as the same as PR, except with recovery of ANC to 0.5 to 1×10^9/L (500 to 1000/μL) and platelet count to 20 to 100×10^9/L (20 000 to 100 000/μL). Progressive disease (PD) was defined as any of the following: more than 50% increase in BM blast percentage from baseline (more than 5% blasts if baseline is less than 5%, more than 10% blasts if baseline is 5% to 10%, and more than 20% blasts if baseline 10% to 20%); greater than 50% increase in circulating blasts; new appearance of circulating blasts on at least 2 consecutive occasions; or development of extramedullary leukemia. Stable disease (SD) was defined as any response not meeting CR, PR, HI, or PD criteria.
Kaplan Meier curves were used to investigate the relationship between biomarker values and clinical benefit. The identification of multiple NK cell related genes, the long duration of response observed in some tipifarnib patients, and the role of RAS mediated signal transduction in NK cells support that the responsiveness of AML patients to tipifarnib treatment could be resulted from bone marrow infiltrates of immune cells.

[1] = tested on: previously untreated elderly or unfit AML patients; assay: CTEP-20 phase 2 trial of tipifarnib, outcome by N-RAS gene status; type: in vivo, human; details: for PFS: FIG. 8; for ORR (response rate): FIG. 9
Protocol: CTEP-20 was a phase 2 clinical trial of tipifarnib in previously untreated elderly or unfit AML patients. (Raponi et al., Blood 111:2589-96 (2008)).
N-RAS gene status was determined for 32 patients. […] Accordingly, AML patients can be selected based on mutation status of RAS gene for tipifarnib treatment in order to increase the responsiveness to the treatment.

[2] = tested on: relapsed/refractory head-and-neck carcinoma with HRAS mutations; assay: Phase 2 trial of tipifarnib in advanced tumors with HRAS mutation, cohort 2; type: in vivo, human
Source text: (§1) A Phase 2 clinical trial was initiated to use tipifarnib in the treatment of advanced tumors with a known HRAS mutation. The clinical trial design includes enrolling 2 cohorts of 18 patients each. Cohort 1 enrolls subjects with malignant thyroid tumors with HRAS mutations, independent of thyroid histology. Cohort 2 enrolls any subject with a non-hematological HRAS mutant tumor other than thyroid cancer who meets eligibility criteria.
(§2) This clinical trial was designed to include two stages, with the first stage including 11 evaluable patients, and the second stage including 7 additional evaluable patients, and a cohort would not proceed to the second stage if one or no objective response is observed in a cohort in the first stage. The clinical trial is considered positive if at least 4 responses are observed in a cohort out of 18 subjects. The primary endpoint is objective response rate, and tumor response assessments are conducted according to the Response Evaluation Criteria in Solid Tumors version 1.1 criteria (confirmation of response is required).
(§3) According to the protocol, tipifarnib is administered to enrolled patients at a starting dose of 900 mg, orally with food, twice a day (b.i.d.) for 7 days in alternating weeks (Days 1-7 and 15-21) in 28 day cycles. At the discretion of the investigator, the dose of tipifarnib can be increased to 1200 mg b.i.d. if the subject has not experienced dose limiting toxicities at the 900 mg dose level. Subjects who develop serious adverse events (SAE) or ≥grade 2 treatment-emergent adverse events (TEAE) that are deemed related to tipifarnib and lasting ≥14 days will not undergo dose escalation. Stepwise 300 mg dose reductions to control treatment-related, treatment-emergent toxicities are also allowed.
(§4) Four (4) evaluable patients were enrolled in the first cohort (patients with malignant thyroid tumors with HRAS mutations) and eleven (11) evaluable patients were enrolled in the second cohort (patients with non-hematologic malignancies other than thyroid cancer with HRAS mutations). In the second cohort, three (3) of those patients have relapsed/refractory head-and-neck carcinoma and two (2) of those three (3) experienced confirmed objective partial responses (PR) and a third patient experienced disease stabilization beyond six months (>8 months). All three head and neck carcinoma patients are HPV negative. All head and neck patients remain on study. […] In addition, five (5) patients enrolled patients have salivary gland cancers with HRAS mutations, and three (3) of them experienced disease stabilization beyond six months (>7, 9 and >11 months). Cohort 2 was proceeded into the second stage of the trial for enrolment of additional seven patients per the trial protocol.

[3] = tested on: salivary gland cancers with HRAS mutations; assay: as above; type: in vivo, human
Source text: as §1, §2, §3, §4

tumor in nude mice = details: cited from earlier work
[4] = 34 previously untreated poor-risk and elderly AML patients
[5] = AML patients with 2DS2/2DL2 ratio at the highest (4th) quartile
[6] = AML patients with wild type N-RAS

Cn1cncc1[C@@](N)(c1ccc(Cl)cc1)c1ccc2c(c1)c(-c1cccc(Cl)c1)cc(=O)n2C [Tipifarnib, (B)-6-[amino(4-chlorophenyl)(1-methyl-1H-imidazol-5-yl)methyl]-4-(3-ch-lorophenyl)-1-methyl-2(1H)-quinolinone]
KIR2DS2 High 4th Quartile (Upper) Median Survival (AML patients; [4]): 564 days | KIR2DS2 Low 1st-3rd Quartile Median Survival (AML patients; [4]): 153 days | Median Overall Survival (AML patients; 34 previously untreated poor-risk and elderly AML patients, all): 233 days | median OS (AML patients; [5]): 750 days | median PFS (AML patients; [5]): 431 days | Exp(b), Cox proportional hazards regression (AML patients; FIG. 2A: PFS versus KIR2DS2/KIR2DL2 expression ratio): 0.0006 | Exp(b), Cox proportional hazards regression (AML patients; FIG. 2B: OS versus 2DS2/2DL2 ratio): 0.0048 | Exp(b), Cox proportional hazards regression (AML patients; FIG. 4A: PFS versus 2DS5/2DL5A ratio): 0.0294 | Exp(b), Cox proportional hazards regression (AML patients; FIG. 6A: GZMM/OS): 0.5688 | Exp(b), Cox proportional hazards regression (AML patients; FIG. 6A: GZMM/PFS): 0.5568 | 1-4th Q Median (survival) (AML patients; GSE8970 (CTEP-20), Front Line Elderly AML, 2DS2/2DL2 ratio 1st-4th quintile): 179 days | HR (AML patients; GSE8970 (CTEP-20), Front Line Elderly AML, 2DS2/2DL2 ratio 5th Q versus rest): 0.21 | 5th Q Median (survival) (AML patients; GSE8970 (CTEP-20), Front Line Elderly AML, 2DS2/2DL2 ratio highest quintile): 754 days | all Median (survival) (AML patients; GSE8970 (CTEP-20), Front Line Elderly AML, all patients): 233 days | Hazards Ratio (AML patients; KIR2DS2 high versus low, 34 AML patients): 0.303 | PFS ([1]; AML patients with mutant N-RAS): 65 days | ORR (response rate) ([1]; AML patients with mutant N-RAS): 27% | PFS [1, 6]: 157 days | ORR (response rate) [1, 6]: 43% | number of patients with confirmed objective partial responses (PR) ([2]; of 3 HPV negative relapsed/refractory head-and-neck carcinoma patients, 900 mg b.i.d. days 1-7 and 15-21 of 28 day cycles): 2 | duration of disease stabilization ([2]; third head-and-neck carcinoma patient): > 8 months | number of patients with disease stabilization beyond six months ([3]; of 5 patients with salivary gland cancers with HRAS mutations): 3 | duration of disease stabilization ([3]; the three individual salivary gland cancer patients with stabilization): > 7 months and 9 months and > 11 months

CC[C@H](C)[C@@H](CO[C@@H](Cc1ccccc1)C(=O)N[C@@H](CCS(C)(=O)=O)C(=O)O)NC[C@@H](N)CS [L-739749, 2(S)-[2(S)-[2(R)-amino-3-mercapto]propylamino-3(S)-methyl]-pentyloxy-3-phenylpropionyl-methionine sulfone]
antitumor activity (tumor in nude mice): potent antitumor activity | toxicity (tumor in nude mice): without system toxicity
